From patent publication US9695155B2, “Herbicidal substituted pyrimidinyloxy benzene compounds” (E. I. DU PONT DE NEMOURS AND COMPANY, priority 2013, dated 2017)

Experiments:
barnyardgrass [1] = experiment: Test A preemergence; assay type: in vivo, Echinochloa crus-galli
Outline: (§1)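 Pre- and postemergence greenhouse screen. Soil: loam + sand. Spray carrier: solvent mixture, non-phytotoxic, with surfactant. Post timing at 1–2 leaves, height 2–10 cm. Readout: visual injury on a 0–100 scale roughly 10 days after application, untreated plants as reference.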

large (Lg) crabgrass [2] = experiment: Test A preemergence; assay type: in vivo, Digitaria sanguinalis
Outline: as §1

giant foxtail [3] = experiment: Test A preemergence; assay type: in vivo, Setaria faberii
Outline: as §1

morningglory [4] = experiment: Test A preemergence; assay type: in vivo, Ipomoea spp.
Outline: as §1

pigweed [5] = experiment: Test A preemergence; assay type: in vivo, Amaranthus retroflexus
Outline: as §1

velvetleaf [6] = experiment: Test A preemergence; assay type: in vivo, Abutilon theophrasti
Outline: as §1

wheat [7] = experiment: Test A preemergence; assay type: in vivo, Triticum aestivum
Outline: as §1

corn [8] = experiment: Test A preemergence; assay type: in vivo, Zea mays
Outline: as §1

barnyardgrass [9] = experiment: Test A postemergence; assay type: in vivo, Echinochloa crus-galli
Outline: as §1

large (Lg) crabgrass [10] = experiment: Test A postemergence; assay type: in vivo, Digitaria sanguinalis
Outline: as §1

giant foxtail [11] = experiment: Test A postemergence; assay type: in vivo, Setaria faberii
Outline: as §1

morningglory [12] = experiment: Test A postemergence; assay type: in vivo, Ipomoea spp.
Outline: as §1

pigweed [13] = experiment: Test A postemergence; assay type: in vivo, Amaranthus retroflexus
Outline: as §1

velvetleaf [14] = experiment: Test A postemergence; assay type: in vivo, Abutilon theophrasti
Outline: as §1

wheat [15] = experiment: Test A postemergence; assay type: in vivo, Triticum aestivum
Outline: as §1

corn [16] = experiment: Test A postemergence; assay type: in vivo, Zea mays
Outline: as §1

rice = experiment: Test B flooded paddy test; assay type: in vivo, Oryza sativa; settings: Flood, 250 g ai/ha; 0 to 100 scale where 0 is no effect and 100 is complete control
Outline: (§2)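 Compound added straight to paddy water, with pots kept flooded 3 cm above soil, on plants grown to the 2-leaf stage. Visual scoring 0-100 (100 = complete control) against untreated controls after 13 to 15 greenhouse days.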

sedge, umbrella = experiment: Test B flooded paddy test; assay type: in vivo, Cyperus difformis; settings: Flood, 250 g ai/ha; 0 to 100 scale where 0 is no effect and 100 is complete control
Outline: as §2

Heteranthera limosa = experiment: Test B flooded paddy test; assay type: in vivo; settings: Flood, 250 g ai/ha; 0 to 100 scale where 0 is no effect and 100 is complete control
Outline: as §2

barnyardgrass [17] = experiment: Test B flooded paddy test; assay type: in vivo, Echinochloa crus-galli; settings: Flood, 250 g ai/ha; 0 to 100 scale where 0 is no effect and 100 is complete control
Outline: as §2

[18] = 500 g ai/ha, 0 to 100 scale where 0 is no effect and 100 is complete control
[19] = 125 g ai/ha, 0 to 100 scale where 0 is no effect and 100 is complete control
[20] = 1000 g ai/ha, 0 to 100 scale, 0 no effect, 100 complete control
[21] = 1000 g ai/ha, 0 to 100 scale, 0 no effect, 100 complete control, approx. 10 days

SMILES: Clc1cnc(Oc2cccc(-c3ccccc3)c2-n2cc(Br)cn2)nc1 [Compound 195]
- Barnyardgrass plant response rating (0 to 100 scale, 0 is no effect, 100 is complete control) (barnyardgrass [1]; 125 g ai/ha): 0
- Barnyardgrass plant response rating (barnyardgrass [1]; [18]): 0
- Crabgrass, Large plant response rating (large (Lg) crabgrass [2]; [18]): 70
- Foxtail, Giant plant response rating (0 to 100 scale) (giant foxtail [3]; 125 g ai/ha): 10
- Foxtail, Giant plant response rating (giant foxtail [3]; [18]): 80
- Morningglory plant response rating (0 to 100 scale) (morningglory [4]; 125 g ai/ha): 0
- Morningglory plant response rating (morningglory [4]; [18]): 10
- Pigweed plant response rating (0 to 100 scale) (pigweed [5]; 125 g ai/ha): 0
- Pigweed plant response rating (pigweed [5]; [18]): 40
- Velvetleaf plant response rating (0 to 100 scale) (velvetleaf [6]; 125 g ai/ha): 0
- Velvetleaf plant response rating (velvetleaf [6]; [18]): 20
- Wheat plant response rating (0 to 100 scale) (wheat [7]; 125 g ai/ha): 0
- Wheat plant response rating (wheat [7]; [18]): 0
- Corn plant response rating (0 to 100 scale) (corn [8]; 125 g ai/ha): 0
- Corn plant response rating (corn [8]; [18]): 0
- Barnyardgrass plant response rating (barnyardgrass [9]; [19]): 0
- Plant response rating, Barnyardgrass (barnyardgrass [9]; [18]): 20
- Crabgrass, Large plant response rating (large (Lg) crabgrass [10]; [19]): 40
- Plant response rating, Crabgrass, Large (large (Lg) crabgrass [10]; [18]): 60
- Foxtail, Giant plant response rating (giant foxtail [11]; [19]): 10
- Plant response rating, Foxtail, Giant (giant foxtail [11]; [18]): 50
- Morningglory plant response rating (morningglory [12]; [19]): 30
- Plant response rating, Morningglory (morningglory [12]; [18]): 70
- Pigweed plant response rating (pigweed [13]; [19]): 60
- Plant response rating, Pigweed (pigweed [13]; [18]): 80
- Velvetleaf plant response rating (velvetleaf [14]; [19]): 50
- Plant response rating, Velvetleaf (velvetleaf [14]; [18]): 100
- Wheat plant response rating (wheat [15]; [19]): 0
- Plant response rating, Wheat (wheat [15]; [18]): 0
- Corn plant response rating (corn [16]; [19]): 0
- Plant response rating, Corn (corn [16]; [18]): 20
- Plant response rating, Rice (rice): 20
- Plant response rating, Sedge, Umbrella (sedge, umbrella): 30
- Plant response rating, Ducksalad (Heteranthera limosa): 20
- Plant response rating, Barnyardgrass (barnyardgrass [17]): 0

SMILES: Brc1cnc(Oc2ccccc2-n2cccn2)nc1 [Compound 13]
- Plant response rating, Barnyardgrass (barnyardgrass [1]; [20]): 80
- Plant response rating, Crabgrass, Large (large (Lg) crabgrass [2]; [20]): 100
- Foxtail, Giant plant response rating (giant foxtail [3]; [21]): 100
- Morningglory plant response rating (morningglory [4]; [21]): 0
- Pigweed plant response rating (pigweed [5]; [21]): 100
- Velvetleaf plant response rating (velvetleaf [6]; [21]): 100
- Wheat plant response rating (wheat [7]; [21]): 20
- Plant response rating, Corn (corn [8]; [20]): 0
- Plant response rating, Barnyardgrass (barnyardgrass [9]; [20]): 90
- Plant response rating, Crabgrass, Large (large (Lg) crabgrass [10]; [20]): 90
- Plant response rating, Foxtail, Giant (giant foxtail [11]; [20]): 100
- Plant response rating, Morningglory (morningglory [12]; [20]): 90
- Plant response rating, Pigweed (pigweed [13]; [20]): 100
- Plant response rating, Velvetleaf (velvetleaf [14]; [20]): 100
- Plant response rating, Wheat (wheat [15]; [20]): 60
- Plant response rating, Corn (corn [16]; [20]): 40
- Plant response rating, Rice (rice): 0
- Plant response rating, Sedge, Umbrella (sedge, umbrella): 0
- Plant response rating, Ducksalad (Heteranthera limosa): 30
- Plant response rating, Barnyardgrass (barnyardgrass [17]): 0
